Assay results taken from ChEMBL document CHEMBL4219183, “Novel purine benzimidazoles as antimicrobial agents by regulating ROS generation and targeting clinically resistant Staphylococcus aureus DNA groove” (Bioorg Med Chem Lett, 2018).
Values after ≈ are worked out from the molar mass of the structure shown.

Columns and labels:
Type in all cases: functional
Escherichia coli [1] = assay: Antibacterial activity against Escherichia coli ATCC 25922 after 24 hrs by two fold serial dilution method; details: ATCC 25922, 24 h
Candida parapsilosis = assay: Antifungal activity against Candida parapsilosis ATCC 22019 after 24 hrs by two fold serial dilution method; details: ATCC 22019, 24 h
Pseudomonas aeruginosa [2] = assay: Antibacterial activity against Pseudomonas aeruginosa ATCC 27853 after 24 hrs by two fold serial dilution method; details: ATCC 27853, 24 h
Klebsiella pneumoniae = assay: Antibacterial activity against Klebsiella pneumoniae after 24 hrs by two fold serial dilution method
Aspergillus fumigatus = assay: Antifungal activity against Aspergillus fumigatus after 24 hrs by two fold serial dilution method
Candida albicans [3] = assay: Antifungal activity against Candida albicans ATCC 90023 after 24 hrs by two fold serial dilution method; details: ATCC 90023, 24 h
Enterococcus faecalis = assay: Antibacterial activity against Enterococcus faecalis after 24 hrs by two fold serial dilution method
Candida tropicalis = assay: Antifungal activity against Candida tropicalis after 24 hrs by two fold serial dilution method
Candida albicans [4] = assay: Antifungal activity against Candida albicans after 24 hrs by two fold serial dilution method
Staphylococcus aureus [5] = assay: Antibacterial activity against methicillin-resistant Staphylococcus aureus N315 after 24 hrs by two fold serial dilution method; details: N315, 24 h
Pseudomonas aeruginosa [6] = assay: Antibacterial activity against Pseudomonas aeruginosa after 24 hrs by two fold serial dilution method
Acinetobacter baumannii = assay: Antibacterial activity against Acinetobacter baumannii after 24 hrs by two fold serial dilution method
Staphylococcus aureus [7] = assay: Antibacterial activity against Staphylococcus aureus after 24 hrs by two fold serial dilution method
Staphylococcus aureus [8] = assay: Antibacterial activity against Staphylococcus aureus ATCC 25923 after 24 hrs by two fold serial dilution method; details: ATCC 25923, 24 h
Escherichia coli [9] = assay: Antibacterial activity against Escherichia coli after 24 hrs by two fold serial dilution method
Staphylococcus aureus [10] = assay: Antibacterial activity against Staphylococcus aureus ATCC 29213 after 24 hrs by two fold serial dilution method; details: ATCC 29213, 24 h

SMILES | MIC (Escherichia coli [1]) | MIC80 (Candida parapsilosis) | MIC (Pseudomonas aeruginosa [2]) | MIC (Klebsiella pneumoniae) | MIC80 (Aspergillus fumigatus) | MIC80 (Candida albicans [3]) | MIC (Enterococcus faecalis) | MIC80 (Candida tropicalis) | MIC80 (Candida albicans [4]) | MIC (Staphylococcus aureus [5]) | MIC (Pseudomonas aeruginosa [6]) | MIC (Acinetobacter baumannii) | MIC (Staphylococcus aureus [7]) | MIC (Staphylococcus aureus [8]) | MIC (Escherichia coli [9]) | MIC (Staphylococcus aureus [10])
CCn1c(Cn2cnc3c(N4CCOCC4)ncnc32)nc2ccccc21 | 128 µg/mL (≈ 352 µM) | 256 µg/mL (≈ 704 µM) | 256 µg/mL (≈ 704 µM) | 256 µg/mL (≈ 704 µM) | 256 µg/mL (≈ 704 µM) | 128 µg/mL (≈ 352 µM) | 128 µg/mL (≈ 352 µM) | 256 µg/mL (≈ 704 µM) | 256 µg/mL (≈ 704 µM) | 256 µg/mL (≈ 704 µM) | 128 µg/mL (≈ 352 µM) | 256 µg/mL (≈ 704 µM) | 256 µg/mL (≈ 704 µM) | 256 µg/mL (≈ 704 µM) | 128 µg/mL (≈ 352 µM) | 256 µg/mL (≈ 704 µM)
Cc1nc2cc([N+](=O)[O-])ccc2n1CCn1cnc2c(N3CCOCC3)ncnc21 | 16 µg/mL (≈ 39.2 µM) | 256 µg/mL (≈ 627 µM) | 64 µg/mL (≈ 157 µM) | 128 µg/mL (≈ 313 µM) | 128 µg/mL (≈ 313 µM) | 256 µg/mL (≈ 627 µM) | 128 µg/mL (≈ 313 µM) | 64 µg/mL (≈ 157 µM) | 512 µg/mL (≈ 1250 µM) | 256 µg/mL (≈ 627 µM) | 64 µg/mL (≈ 157 µM) | 32 µg/mL (≈ 78.4 µM) | 16 µg/mL (≈ 39.2 µM) | 128 µg/mL (≈ 313 µM) | 128 µg/mL (≈ 313 µM) | 64 µg/mL (≈ 157 µM)
c1nc(N2CCOCC2)c2nc[nH]c2n1 | 256 µg/mL (≈ 1250 µM) | 512 µg/mL (≈ 2490 µM) | 256 µg/mL (≈ 1250 µM) | 128 µg/mL (≈ 624 µM) | 256 µg/mL (≈ 1250 µM) | 256 µg/mL (≈ 1250 µM) | 128 µg/mL (≈ 624 µM) | 256 µg/mL (≈ 1250 µM) | 256 µg/mL (≈ 1250 µM) | 512 µg/mL (≈ 2490 µM) | 256 µg/mL (≈ 1250 µM) | 256 µg/mL (≈ 1250 µM) | 256 µg/mL (≈ 1250 µM) | 512 µg/mL (≈ 2490 µM) | 256 µg/mL (≈ 1250 µM) | 512 µg/mL (≈ 2490 µM)
CCCCCCn1c(Cn2cnc3c(N4CCCCC4)ncnc32)nc2ccccc21 | 16 µg/mL (≈ 38.3 µM) | 64 µg/mL (≈ 153 µM) | 128 µg/mL (≈ 307 µM) | 64 µg/mL (≈ 153 µM) | 128 µg/mL (≈ 307 µM) | 32 µg/mL (≈ 76.6 µM) | 128 µg/mL (≈ 307 µM) | 64 µg/mL (≈ 153 µM) | 64 µg/mL (≈ 153 µM) | 64 µg/mL (≈ 153 µM) | 128 µg/mL (≈ 307 µM) | 64 µg/mL (≈ 153 µM) | 16 µg/mL (≈ 38.3 µM) | 64 µg/mL (≈ 153 µM) | 256 µg/mL (≈ 613 µM) | 512 µg/mL (≈ 1230 µM)
Fc1ccc(Cn2c(Cn3cnc4c(N5CCOCC5)ncnc43)nc3ccccc32)cc1 | 256 µg/mL (≈ 577 µM) | 256 µg/mL (≈ 577 µM) | 64 µg/mL (≈ 144 µM) | 128 µg/mL (≈ 289 µM) | 256 µg/mL (≈ 577 µM) | 128 µg/mL (≈ 289 µM) | 256 µg/mL (≈ 577 µM) | 64 µg/mL (≈ 144 µM) | 256 µg/mL (≈ 577 µM) | 256 µg/mL (≈ 577 µM) | 256 µg/mL (≈ 577 µM) | 256 µg/mL (≈ 577 µM) | 512 µg/mL (≈ 1150 µM) | 64 µg/mL (≈ 144 µM) | 128 µg/mL (≈ 289 µM) | 256 µg/mL (≈ 577 µM)
CCCCCCn1c(Cn2cnc3c(N4CCCC4)ncnc32)nc2ccccc21 | 16 µg/mL (≈ 39.6 µM) | 32 µg/mL (≈ 79.3 µM) | 256 µg/mL (≈ 634 µM) | 128 µg/mL (≈ 317 µM) | 128 µg/mL (≈ 317 µM) | 32 µg/mL (≈ 79.3 µM) | 256 µg/mL (≈ 634 µM) | 128 µg/mL (≈ 317 µM) | 64 µg/mL (≈ 159 µM) | 64 µg/mL (≈ 159 µM) | 128 µg/mL (≈ 317 µM) | 64 µg/mL (≈ 159 µM) | 32 µg/mL (≈ 79.3 µM) | 64 µg/mL (≈ 159 µM) | 256 µg/mL (≈ 634 µM) | 512 µg/mL (≈ 1270 µM)
